# According to paper PMC10981527 (Bioorganic & medicinal chemistry letters, 2024):
# Read-outs that look alike come from different tables or passages of the source.
# Experiments:
# [1] = tested on: farnesyl diphosphate synthase (FDPS); details: in words; cited from earlier work
# myeloma cells = details: cited from earlier work
# [2] = observed only at high concentrations; cited from earlier work
# [3] = molecular target: T1, geranylgeranyl diphosphate synthase (GGDPS) (Homo sapiens, UniProt O95749); details: read-out: GGDPS IC50; historical control; cited from earlier work
# T1 sequence (O95749 1-300): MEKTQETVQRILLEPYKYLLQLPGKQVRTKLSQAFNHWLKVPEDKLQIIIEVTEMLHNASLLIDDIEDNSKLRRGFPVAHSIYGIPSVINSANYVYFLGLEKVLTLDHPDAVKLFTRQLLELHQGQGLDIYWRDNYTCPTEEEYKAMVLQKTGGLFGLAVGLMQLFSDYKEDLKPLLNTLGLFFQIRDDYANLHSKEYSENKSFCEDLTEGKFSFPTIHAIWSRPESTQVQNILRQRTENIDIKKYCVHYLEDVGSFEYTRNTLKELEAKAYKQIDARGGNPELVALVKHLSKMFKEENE
# RPMI-8226 cells = details: historical control; cited from earlier work
# [4] = molecular target: T1, geranylgeranyl diphosphate synthase (GGDPS); assay: Enzyme assay utilizing recombinant GGDPS; format: biochemical
smiles,measurement,setting,value
CC(C)=CCC/C(C)=C/CCn1cc(CC(P(=O)([O-])[O-])P(=O)([O-])[O-])nn1.[Na+].[Na+].[Na+].[Na+] [Compound 5],Specificity for GGDPS over FDPS,[1],high specificity
same,"Cellular activity, lowest concentration","myeloma cells; myeloma cells, mixture of olefin isomers",30 nM
"CC(C)=CCC/C(C)=C/CC(C/C=C(\C)CCC=C(C)C)(P(=O)(O)O)P(=O)(O)O [Compound 3, digeranyl bisphosphonate]",Concentration at which cellular activity was observed,[2],~ 10 μM
CC(C)=CCC/C(C)=C\CCn1cc(CC(C)(P(=O)([O-])[O-])P(=O)([O-])[O-])nn1.[Na+].[Na+].[Na+].[Na+] [Compound 6],IC50,[3],125 ± 27 nM
same,Cellular LEC (lowest effective concentration),RPMI-8226 cells,0.02 µM
same,"Cellular activity, lowest concentration",myeloma cells,20 nM
CC(C)=CCC/C(C)=C/CCn1cc(CC(C)(P(=O)([O-])[O-])P(=O)([O-])[O-])nn1.[Na+].[Na+].[Na+].[Na+] [Compound 7],IC50,[3],86 ± 22 nM
same,"Cellular activity, lowest concentration",myeloma cells,25 nM
CC(C)=CCC/C(C)=C/Cn1cc(CC(N)(P(=O)(O)O)P(=O)(O)O)nn1 [Compound 18],GGDPS inhibitory activity in enzyme assay,[4],no activity
